Literature values, collected in patent US20240156891A1, “EXTRACTS OF SALVIA MILTIORRHIZA AND/OR PONCIRUS TRIFOLIATA FOR INHIBITING BODY WEIGHT GAIN” (Taipei Medical University, priority 2022, published 2024).

Conditions: typical values of solvents

Structure (SMILES) | log Kow
CCOC(C)=O [ethyl acetate] | 0.66~0.73
CC(C)=O [acetone] | −0.24
CCCCCC [n-hexane] | 3.17~3.94
CO [methanol] | −0.82~−0.66
